In article PMC7150977, “Regional Intestinal Drug Permeability and Effects of Permeation Enhancers in Rat” (Pharmaceutics, 2020):
Like-named read-outs stand apart in the source and are kept apart here.

Tests used:
jejunum and colon [1] = test: Regional comparison (jejunum vs colon, pH 6.5 vs 7.4) of Peff in rat SPIP; format: in vivo; conditions: plasma appearance
Method: The ratio was compared using the paired student’s t-test with the Benjamini–Hochberg multiple t-test correction. Multiple comparisons between groups were performed using a two-way ANOVA with a post-hoc Holm–Sidak multiple comparison test. Log transformation of values was performed when the original measured data were heteroscedastic and not normally distributed; this was investigated using the Bartlett test. Differences were considered to be statistically significant for p-values < than 0.05.

[2] = First-pass extraction (Ffirstpass) in rat intestine and liver; format: in vivo; conditions: based on literature data, iv plasma CL and liver blood flow 47 mL/min/kg
colon [3] = conditions: control solutions, mean ±SD, n = 38
Method: A linear regression analysis of the plasma samples was made to obtain a corresponding plasma value for each perfusate sample. The blood-to-lumen CLCr-EDTA was calculated using Equation (1) [16]. (1) CLCr−EDTA=Cperfusate × Qin/Cplasma × tissue weight ×100 where Cperfusate and Cplasma is the activity in the perfusate and plasma (cpm/mL), and Qin is the flow rate (mL/min). CLCr-EDTA was determined during the last 45 min for the control solution and during the last 60 min for the test solutions, of which the first 15 min of each period were for equilibration.

jejunum [4] = test: Rat single-pass intestinal perfusion (SPIP), jejunal lumen-to-blood Peff from plasma appearance; format: in vivo; conditions: 100 µM, mean ±SD, n = 6
jejunum [5] = tested on: jejunum; parameters: method as in PMID 31201856; conditions: rat jejunum SPIP, cited from earlier work
jejunum and colon [6] = conditions: human study; cited from earlier work
colon [7] = conditions: male, Han Wistar, rat, in vivo, 60 min, 100 µM
[8] = parameters: method as in PMID 9836611; conditions: n-octanol-water; cited from earlier work
intestine [9] = conditions: pH 6.5, rat SPIP model; cited from earlier work
intestine [10] = conditions: pH 6.5, human SPIP model; cited from earlier work
[11] = parameters: method as in patent wo2012080471, 6; conditions: dog, oral with permeation enhancer; ref patent wo2012080471, 6; cited from earlier work
[12] = Jejunum pH 6.5, control solution
[13] = Jejunum pH 7.4, control solution

CC(C)NCC(O)COc1ccc(CC(N)=O)cc1 (centres unmarked) [Atenolol, atenolol]
difference in jejunal and colonic basal Peff (jejunum and colon [1]): no differences | Ffirstpass (first-pass extraction compensation value) [2]: 1.0

O=C([O-])CN(CCN(CC(=O)[O-])CC(=O)[O-])CC(=O)[O-].[51Cr+3] [Cr-EDTA, ^51chromium-labeled ethylenediaminetetraacetate]
colonic CLCr-EDTA (blood-to-lumen clearance) (colon [3]): 0.038 ± 0.050 mL/min/100 g

C[C@H](N[C@@H](CCc1ccccc1)C(=O)O)C(=O)N1CCC[C@H]1C(=O)O [Enalaprilat, enalaprilat]
Plasma Appearance Peff (jejunum [4]; [12]): 0.005 ± 0.004 ×10^–4 cm/s | Plasma Appearance Peff (jejunum [4]; [13]): 0.004 ± 0.001 ×10^–4 cm/s | difference in jejunal and colonic basal Peff (jejunum and colon [1]): no differences | permeability from luminal disappearance compared to plasma appearance (times higher) (jejunum [5]; same rat): > 10 times

CC(C(=O)O)c1cccc(C(=O)c2ccccc2)c1 (centres unmarked) [Ketoprofen, ketoprofen]
difference between permeability from luminal disappearance and plasma appearance (jejunum [5]): no differences | difference between permeability from luminal disappearance and plasma appearance (jejunum and colon [6]): no differences

COCCc1ccc(OCC(O)CNC(C)C)cc1 (centres unmarked) [Metoprolol, metoprolol]
Plasma Appearance Peff (jejunum [4]; [12]): 0.28 ± 0.24 ×10^–4 cm/s | Plasma Appearance Peff (jejunum [4]; [13]): 0.17 ± 0.095 ×10^–4 cm/s | Ffirstpass (first-pass extraction compensation value) [2]: 0.22 | Plasma Appearance Peff (colon [7]; pH 6.5): 0.41 ± 0.19 ×10^–4 cm/s | Plasma Appearance Peff (colon [7]; pH 7.4): 0.38 ± 0.15 ×10^–4 cm/s | Log P [8]: 2.07 | difference between permeability from luminal disappearance and plasma appearance (jejunum [5]): no differences | difference between permeability from luminal disappearance and plasma appearance (jejunum and colon [6]): no differences

CCCCCCCCCC(=O)[O-].[Na+] [caprate, sodium caprate]
permeation enhancing effect (intestine [9]): no permeation enhancing effect | permeation enhancing effect (intestine [10]): no permeation enhancing effect

semaglutide
bioavailability [11]: 0.29 % of the oral dose
